# Measurements from ChEMBL document CHEMBL1130808, “Prediction of the GTPase activities by using the semiempirical molecular orbital theory” (Bioorg Med Chem Lett, 1998).
# Assay: Effect on rate of GTP hydrolysis in the GTP binding protein ras p21
row,krel,SMILES
1,0.98,CCC[C@H](N)C(=O)O
2,1.04,C[C@H](N)C(=O)O
3,1.02,CC(C)[C@H](N)C(=O)O

row,SMILES,krel
1,CNC[C@H](N)C(=O)O,1
